Structures are written as SMILES.

Common to all, as to assay type: functional
Test [1] has as its target T1, Peroxisome proliferator-activated receptor delta (Homo sapiens, UniProt Q03181).
T1 sequence (Q03181 whole entry): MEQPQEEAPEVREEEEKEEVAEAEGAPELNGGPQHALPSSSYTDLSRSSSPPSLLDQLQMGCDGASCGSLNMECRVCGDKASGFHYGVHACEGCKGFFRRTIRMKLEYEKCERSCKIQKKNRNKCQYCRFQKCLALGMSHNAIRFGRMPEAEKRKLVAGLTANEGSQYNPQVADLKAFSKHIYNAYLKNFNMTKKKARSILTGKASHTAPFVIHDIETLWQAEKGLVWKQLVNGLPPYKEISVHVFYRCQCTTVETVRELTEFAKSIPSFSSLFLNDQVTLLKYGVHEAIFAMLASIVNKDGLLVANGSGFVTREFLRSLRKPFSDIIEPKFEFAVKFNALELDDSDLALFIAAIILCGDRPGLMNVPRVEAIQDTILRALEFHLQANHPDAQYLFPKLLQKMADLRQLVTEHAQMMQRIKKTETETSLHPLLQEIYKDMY
Nature of the test: Agonist activity at human PPARdelta assessed as transactivation activity.

In test [2] the target is T2, Peroxisome proliferator-activated receptor gamma (Homo sapiens, UniProt P37231).
T2 sequence (P37231 whole entry): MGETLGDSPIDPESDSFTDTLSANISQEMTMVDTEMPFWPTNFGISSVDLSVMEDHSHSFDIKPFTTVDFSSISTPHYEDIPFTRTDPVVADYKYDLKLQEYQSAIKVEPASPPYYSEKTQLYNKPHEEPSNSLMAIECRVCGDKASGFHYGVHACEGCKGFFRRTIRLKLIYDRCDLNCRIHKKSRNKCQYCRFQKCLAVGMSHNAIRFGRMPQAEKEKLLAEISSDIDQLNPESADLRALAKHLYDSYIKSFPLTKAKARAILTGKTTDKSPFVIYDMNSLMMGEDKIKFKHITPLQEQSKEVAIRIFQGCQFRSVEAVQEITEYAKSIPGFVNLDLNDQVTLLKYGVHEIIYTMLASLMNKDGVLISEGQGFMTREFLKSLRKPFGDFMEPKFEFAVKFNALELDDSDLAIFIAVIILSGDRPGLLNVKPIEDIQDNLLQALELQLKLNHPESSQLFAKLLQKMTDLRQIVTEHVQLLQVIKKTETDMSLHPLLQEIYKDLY
Nature of the test: Agonist activity at N-terminal His-tagged human PPARgamma expressed in Escherichia coli BL21 assessed as transactivation activity.

The target in test [3] is T3, Peroxisome proliferator-activated receptor alpha (Homo sapiens, UniProt Q07869).
T3 sequence (Q07869 whole entry): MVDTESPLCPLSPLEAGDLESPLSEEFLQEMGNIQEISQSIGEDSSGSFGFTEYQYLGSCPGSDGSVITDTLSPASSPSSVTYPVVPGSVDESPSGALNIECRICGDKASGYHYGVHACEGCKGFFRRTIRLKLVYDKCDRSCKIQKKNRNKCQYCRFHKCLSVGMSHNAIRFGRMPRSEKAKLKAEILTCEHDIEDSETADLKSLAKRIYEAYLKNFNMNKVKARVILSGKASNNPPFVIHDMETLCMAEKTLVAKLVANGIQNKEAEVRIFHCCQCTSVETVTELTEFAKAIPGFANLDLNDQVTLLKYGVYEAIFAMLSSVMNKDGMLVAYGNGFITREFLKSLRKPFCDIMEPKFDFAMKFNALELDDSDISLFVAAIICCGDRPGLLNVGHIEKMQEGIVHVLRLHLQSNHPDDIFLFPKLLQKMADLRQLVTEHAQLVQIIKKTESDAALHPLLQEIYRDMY
Description: Agonist activity at human PPARalpha assessed as transactivation activity.

Regarding `CC[C@@H](Cc1ccc(OC)c(CNC(=O)c2ccc3ccc4cccc5ccc2c3c45)c1)C(=O)O`, the EC50 in test [1] is 43 nM; in test [2], “Not Active”; in test [3], 12 nM.

For orientation: EC50 means the midpoint of the concentration-response curve.

Source of the values: ChEMBL document CHEMBL1955804, “Peroxisome proliferator-activated receptors (PPARs) have multiple binding points that accommodate ligands in various conformations: phenylpropanoic acid-type PPAR ligands bind to PPAR in different conformations, depending on the subtype” (J Med Chem, 2012).
